How the values were obtained:
[1] = target: T1, RTN3 Reticulon-3 (Homo sapiens, UniProt O95197); assay: competitive isoTOP-ABPP; assay type: binding; conditions: 50 uM, in vitro; for isoTOP-ABPP reactivity ratio at lysine O95197_K1022: 231 sol; for isoTOP-ABPP ratio (R) at liganded lysine O95197_K1022: sol, 231
T1 construct: isoTOP-ABPP experiments performed in cell lysates (in vitro); endogenous in cells; host or cells: MDA-MB-231 soluble lysate
T1 sequence (O95197 1-1032): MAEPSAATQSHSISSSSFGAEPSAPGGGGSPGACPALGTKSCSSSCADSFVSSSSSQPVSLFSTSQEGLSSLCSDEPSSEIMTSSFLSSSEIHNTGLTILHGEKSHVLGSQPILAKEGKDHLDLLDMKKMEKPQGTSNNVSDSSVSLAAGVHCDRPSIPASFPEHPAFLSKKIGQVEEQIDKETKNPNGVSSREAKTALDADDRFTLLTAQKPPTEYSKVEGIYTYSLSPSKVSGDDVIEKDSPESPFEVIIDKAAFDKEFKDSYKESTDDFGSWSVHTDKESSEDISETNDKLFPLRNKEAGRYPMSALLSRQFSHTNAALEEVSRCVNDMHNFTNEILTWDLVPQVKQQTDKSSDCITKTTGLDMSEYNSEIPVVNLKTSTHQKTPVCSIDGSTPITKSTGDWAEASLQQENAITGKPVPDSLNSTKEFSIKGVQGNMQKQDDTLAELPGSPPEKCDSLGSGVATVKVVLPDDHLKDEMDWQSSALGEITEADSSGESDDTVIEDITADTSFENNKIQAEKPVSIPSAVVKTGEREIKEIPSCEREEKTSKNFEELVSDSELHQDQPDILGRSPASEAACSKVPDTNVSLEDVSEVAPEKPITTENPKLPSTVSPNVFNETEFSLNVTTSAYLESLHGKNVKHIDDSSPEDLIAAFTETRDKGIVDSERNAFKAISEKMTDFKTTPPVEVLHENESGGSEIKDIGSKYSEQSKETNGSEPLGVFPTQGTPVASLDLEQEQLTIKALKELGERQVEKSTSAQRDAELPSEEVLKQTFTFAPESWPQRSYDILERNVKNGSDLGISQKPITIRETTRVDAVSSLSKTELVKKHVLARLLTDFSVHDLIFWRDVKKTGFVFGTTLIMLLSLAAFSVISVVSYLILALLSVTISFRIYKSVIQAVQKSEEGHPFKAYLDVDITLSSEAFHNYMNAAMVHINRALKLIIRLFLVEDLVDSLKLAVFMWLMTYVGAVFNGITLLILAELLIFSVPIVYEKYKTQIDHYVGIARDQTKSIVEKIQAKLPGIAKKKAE
Method in brief: (§1)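 Cell lysate (0.5 ml) was pre-treated with fragment, 50 μM for activated esters or 100 μM for guanidinylating agents, versus DMSO, then labeled 1 h at ambient temperature with 0.1 mM STP-alkyne. Light/heavy TEV tags attached by CuAAC; R = DMSO/compound MS1 peak-area ratio, median per lysine.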

[2] = target: T2, SFXN1 Sideroflexin-1 (Homo sapiens, UniProt Q9H9B4); assay: competitive isoTOP-ABPP; assay type: binding; conditions: for isoTOP-ABPP reactivity ratio at lysine Q9H9B4_K170 / isoTOP-ABPP ratio (R) at liganded lysine Q9H9B4_K170: 50 uM, in vitro; for isoTOP-ABPP reactivity ratio at lysine Q9H9B4_K170: 231 sol; for isoTOP-ABPP ratio (R) at liganded lysine Q9H9B4_K170: sol, 231
T2 construct: endogenous in cells; host or cells: MDA-MB-231 lysate
T2 sequence (Q9H9B4 1-322): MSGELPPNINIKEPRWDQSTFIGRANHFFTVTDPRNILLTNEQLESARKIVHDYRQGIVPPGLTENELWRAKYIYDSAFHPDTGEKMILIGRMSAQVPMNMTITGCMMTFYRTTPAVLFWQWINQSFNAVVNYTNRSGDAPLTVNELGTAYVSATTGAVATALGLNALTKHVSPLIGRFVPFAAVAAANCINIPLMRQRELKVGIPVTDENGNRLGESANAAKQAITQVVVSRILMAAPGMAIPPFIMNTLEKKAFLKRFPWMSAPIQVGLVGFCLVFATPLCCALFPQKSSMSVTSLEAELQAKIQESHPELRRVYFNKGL
Method in brief: as §1

In the case of `CCn1cc(C(=O)Oc2c(F)c(F)c(F)c(F)c2F)c(=O)c2ccc(C)nc21` [fragment 28, Pentafluorophenyl 1-ethyl-7-methyl-4-oxo-1,4-dihydro-1,8-naphthyridine-3-carboxylate], the “isoTOP-ABPP reactivity ratio at lysine O95197_K1022” value [1] is reported as 1.2.
`O=C(CCc1cn(-c2ccccc2)nc1-c1ccccc1)Oc1ccc([N+](=O)[O-])cc1[N+](=O)[O-]` [fragment 29, 2,4-Dinitrophenyl 3-(1,3-diphenyl-1H-pyrazol-4-yl)propanoate] was tested, and the “isoTOP-ABPP reactivity ratio at lysine O95197_K1022” value [1] was 6.2 and the “isoTOP-ABPP reactivity ratio at lysine Q9H9B4_K170” value [2] was 20.0.
For `O=C(Oc1ccc([N+](=O)[O-])cc1[N+](=O)[O-])C(c1ccccc1)c1ccccc1` [fragment 30, 2,4-Dinitrophenyl 2,2-diphenylacetate], the “isoTOP-ABPP reactivity ratio at lysine O95197_K1022” value [1] was 20.0 and the “isoTOP-ABPP reactivity ratio at lysine Q9H9B4_K170” value [2] was 4.5.
For `Cn1cc(CC(=O)Oc2ccc([N+](=O)[O-])cc2[N+](=O)[O-])c2ccccc21` [fragment 32, 2,4-Dinitrophenyl 2-(1-methyl-1H-indol-3-yl)acetate], the “isoTOP-ABPP reactivity ratio at lysine Q9H9B4_K170” value [2] was 8.6.
With `COc1cc(CCC(=O)Oc2ccc([N+](=O)[O-])cc2[N+](=O)[O-])cc(OC)c1OC` [fragment 33, 2,4-Dinitrophenyl 3-(3,4,5-trimethoxyphenyl)propanoate] the “isoTOP-ABPP reactivity ratio at lysine O95197_K1022” value [1] was 1.4.
In the case of `O=C(CC12CC3CC(CC(C3)C1)C2)Oc1ccc([N+](=O)[O-])cc1[N+](=O)[O-]` [fragment 38, 2,4-Dinitrophenyl 2-(adamantan-1-yl)acetate], the “isoTOP-ABPP ratio (R) at liganded lysine Q9H9B4_K170” value [2] is reported as 1.9.
With `O=C(Oc1ccc([N+](=O)[O-])cc1[N+](=O)[O-])c1ccccc1Nc1cccc(C(F)(F)F)c1` [fragment 40, 2,4-Dinitrophenyl 2-((3-(trifluoromethyl)phenyl)amino)benzoate] the “isoTOP-ABPP ratio (R) at liganded lysine O95197_K1022” value [1] was 1.7.
`CC(C)(C)OC(=O)NCCCC(=O)Oc1ccc([N+](=O)[O-])cc1[N+](=O)[O-]` [fragment 41, 2,4-Dinitrophenyl 4-((tert-butoxycarbonyl)amino)butanoate] was tested, and the “isoTOP-ABPP ratio (R) at liganded lysine O95197_K1022” value [1] was 1.6 and the “isoTOP-ABPP ratio (R) at liganded lysine Q9H9B4_K170” value [2] was 2.5.
`O=C(Oc1ccc([N+](=O)[O-])cc1[N+](=O)[O-])C(c1ccccc1)(c1ccccc1)c1ccccc1` [fragment 42, 2,4-Dinitrophenyl 2,2,2-triphenylacetate] was tested, and the “isoTOP-ABPP ratio (R) at liganded lysine O95197_K1022” value [1] was 1.1.
With `N#Cc1ccc(C(=O)Oc2ccc([N+](=O)[O-])cc2[N+](=O)[O-])cc1` [fragment 44, 2,4-Dinitrophenyl 4-cyanobenzoate] the “isoTOP-ABPP ratio, lysine Q9H9B4_K170” value ([2]; 50 uM_231_sol_in vitro) was 0.9.
For `O=C(CCc1ccc2c(c1)OCO2)Oc1ccc([N+](=O)[O-])cc1[N+](=O)[O-]` [fragment 45, 2,4-Dinitrophenyl 3-(benzo[d][1,3]dioxol-5-yl)propanoate], the “isoTOP-ABPP ratio, lysine Q9H9B4_K170” value ([2]; 50 uM_231_sol_in vitro) was 2.1.
In the case of `O=C(ON1C(=O)CCC1=O)c1cc(C(F)(F)F)cc(C(F)(F)F)c1` [fragment 46, 3,5-Bis(trifluoromethyl)benzoic acid NHS ester], the “isoTOP-ABPP ratio, lysine Q9H9B4_K170” value ([2]; 50 uM_231_sol_in vitro) is reported as 0.9.
`CC(C)(C)OC(=O)N=C(NC(=O)OC(C)(C)C)n1cccn1` [fragment 50, reference compound] was tested, and the “isoTOP-ABPP ratio, lysine Q9H9B4_K170” value ([2]; 100 uM_231_sol_in vitro) was 1.9.

Source: US20210255193A1, “LYSINE REACTIVE PROBES AND USES THEREOF” (The Scripps Research Institute, priority 2017, published 2021)
